From PMC13210772, “Dual FLT3/MAPK14 Proteolysis-Targeting Chimera (PROTAC) Induces Potent Acute Myeloid Leukemia Cell Death” (Pharmaceuticals, 2026)

What was measured:
[1] = biological target: T1, EPHB2 (Homo sapiens, UniProt P29323); assay: NanoBRET CELLinib128; format: binding; conditions: 1 µM; 100% no effect, 0% complete tracer displacement
T1 construct: Full-length kinase ORF (Promega, Madison, WI, USA) cloned in frame with a NanoLuc-vector was transfected into HEK293T cells; host or cells: HEK293T

[2] = biological target: GSK3B (Homo sapiens, UniProt P49841); assay: NanoBRET CELLinib128; conditions: read-out: Tracer bound
[3] = biological target: CLK4 (Homo sapiens, UniProt Q9HAZ1); assay: NanoBRET CELLinib128; conditions: read-out: Tracer bound
[4] = biological target: IGF1R (Homo sapiens, UniProt P08069); assay: NanoBRET CELLinib128; conditions: read-out: Tracer bound
[5] = biological target: EPHB4 (Homo sapiens, UniProt P54760); assay: NanoBRET CELLinib128; conditions: read-out: Tracer bound
[6] = biological target: T2, FYN (Homo sapiens, UniProt P06241); assay: NanoBRET CELLinib128; format: binding; conditions: 100% no effect, 0% complete tracer displacement, read-out: Tracer bound
T2 construct: Full-length kinase ORF (Promega, Madison, WI, USA) cloned in frame with a NanoLuc-vector was transfected into HEK293T cells; host or cells: HEK293T
T2 sequence (P06241 whole entry): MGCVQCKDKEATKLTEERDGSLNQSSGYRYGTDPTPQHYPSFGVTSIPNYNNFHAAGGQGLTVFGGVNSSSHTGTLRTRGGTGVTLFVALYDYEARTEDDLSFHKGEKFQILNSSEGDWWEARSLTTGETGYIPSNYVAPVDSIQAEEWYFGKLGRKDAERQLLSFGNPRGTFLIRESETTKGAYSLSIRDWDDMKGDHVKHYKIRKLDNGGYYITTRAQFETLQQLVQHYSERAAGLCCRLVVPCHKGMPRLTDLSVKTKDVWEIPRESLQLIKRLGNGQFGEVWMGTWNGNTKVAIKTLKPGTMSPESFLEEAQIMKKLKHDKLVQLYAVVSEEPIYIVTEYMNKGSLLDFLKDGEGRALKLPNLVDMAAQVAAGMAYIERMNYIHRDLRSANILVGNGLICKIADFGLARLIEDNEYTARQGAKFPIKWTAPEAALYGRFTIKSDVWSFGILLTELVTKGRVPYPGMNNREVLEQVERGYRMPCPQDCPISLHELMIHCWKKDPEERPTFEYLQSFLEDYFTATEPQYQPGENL

[7] = biological target: ALK (Homo sapiens, UniProt Q9UM73); assay: NanoBRET CELLinib128; conditions: read-out: Tracer bound
[8] = biological target: CSNK1D (Homo sapiens, UniProt P48730); assay: NanoBRET CELLinib128; conditions: read-out: Tracer bound
Chain of CSNK1D (P48730 whole entry): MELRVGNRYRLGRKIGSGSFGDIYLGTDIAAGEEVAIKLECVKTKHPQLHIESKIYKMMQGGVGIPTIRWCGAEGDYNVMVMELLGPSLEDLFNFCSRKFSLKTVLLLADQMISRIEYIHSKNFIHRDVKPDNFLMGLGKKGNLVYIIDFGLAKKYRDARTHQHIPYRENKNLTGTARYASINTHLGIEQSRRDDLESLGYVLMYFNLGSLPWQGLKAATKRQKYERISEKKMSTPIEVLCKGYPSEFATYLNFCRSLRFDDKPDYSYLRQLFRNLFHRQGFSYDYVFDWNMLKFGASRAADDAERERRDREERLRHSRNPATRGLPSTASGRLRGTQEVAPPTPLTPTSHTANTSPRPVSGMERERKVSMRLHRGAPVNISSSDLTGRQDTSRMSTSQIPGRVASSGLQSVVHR

[9] = biological target: PLK2 (Homo sapiens, UniProt Q9NYY3); assay: NanoBRET CELLinib128; conditions: 1 µM; 100% no effect, 0% complete tracer displacement
[10] = biological target: DDR1 (Homo sapiens, UniProt Q08345); assay: NanoBRET CELLinib128; conditions: read-out: Tracer bound
[11] = biological target: T3, HCK (Homo sapiens, UniProt P08631); assay: NanoBRET CELLinib128; format: binding; conditions: 100% no effect, 0% complete tracer displacement, read-out: Tracer bound
T3 construct: Full-length kinase ORF (Promega, Madison, WI, USA) cloned in frame with a NanoLuc-vector was transfected into HEK293T cells; host or cells: HEK293T

[12] = biological target: STK32B (Homo sapiens, UniProt Q9NY57); assay: NanoBRET CELLinib128; conditions: read-out: Tracer bound
Chain of STK32B (Q9NY57 whole entry): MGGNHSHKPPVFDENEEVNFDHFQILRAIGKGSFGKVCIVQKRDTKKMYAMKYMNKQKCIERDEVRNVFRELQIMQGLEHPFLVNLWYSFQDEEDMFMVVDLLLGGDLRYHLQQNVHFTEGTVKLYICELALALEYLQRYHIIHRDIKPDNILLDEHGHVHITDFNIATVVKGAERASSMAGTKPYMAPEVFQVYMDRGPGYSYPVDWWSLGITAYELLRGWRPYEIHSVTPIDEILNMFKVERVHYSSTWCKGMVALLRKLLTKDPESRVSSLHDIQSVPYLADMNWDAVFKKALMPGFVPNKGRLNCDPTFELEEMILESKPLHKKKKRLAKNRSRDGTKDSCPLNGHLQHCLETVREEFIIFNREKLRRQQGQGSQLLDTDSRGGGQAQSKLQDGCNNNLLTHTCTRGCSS

[13] = biological target: EPHA2 (Homo sapiens, UniProt P29317); assay: NanoBRET CELLinib128; conditions: read-out: Tracer bound
[14] = biological target: T4, CAMK1D (Homo sapiens, UniProt Q8IU85); assay: NanoBRET CELLinib128; format: binding; conditions: 100% no effect, 0% complete tracer displacement, read-out: Tracer bound
T4 construct: Full-length kinase ORF (Promega, Madison, WI, USA) cloned in frame with a NanoLuc-vector was transfected into HEK293T cells; host or cells: HEK293T
T4 sequence (Q8IU85 whole entry): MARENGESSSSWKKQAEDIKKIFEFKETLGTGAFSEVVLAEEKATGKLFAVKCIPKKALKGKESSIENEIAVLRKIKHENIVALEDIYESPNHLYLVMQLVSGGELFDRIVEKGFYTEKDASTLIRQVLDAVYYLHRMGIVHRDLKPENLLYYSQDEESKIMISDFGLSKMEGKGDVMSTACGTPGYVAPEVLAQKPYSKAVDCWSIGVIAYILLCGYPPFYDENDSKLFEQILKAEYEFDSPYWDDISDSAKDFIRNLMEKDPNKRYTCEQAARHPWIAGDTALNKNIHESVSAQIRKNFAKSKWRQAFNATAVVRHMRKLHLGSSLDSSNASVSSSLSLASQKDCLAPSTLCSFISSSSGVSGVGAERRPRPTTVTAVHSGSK

[15] = biological target: STK26 (Homo sapiens, UniProt Q9P289); assay: NanoBRET CELLinib128; conditions: read-out: Tracer bound
Chain of STK26 (Q9P289 whole entry): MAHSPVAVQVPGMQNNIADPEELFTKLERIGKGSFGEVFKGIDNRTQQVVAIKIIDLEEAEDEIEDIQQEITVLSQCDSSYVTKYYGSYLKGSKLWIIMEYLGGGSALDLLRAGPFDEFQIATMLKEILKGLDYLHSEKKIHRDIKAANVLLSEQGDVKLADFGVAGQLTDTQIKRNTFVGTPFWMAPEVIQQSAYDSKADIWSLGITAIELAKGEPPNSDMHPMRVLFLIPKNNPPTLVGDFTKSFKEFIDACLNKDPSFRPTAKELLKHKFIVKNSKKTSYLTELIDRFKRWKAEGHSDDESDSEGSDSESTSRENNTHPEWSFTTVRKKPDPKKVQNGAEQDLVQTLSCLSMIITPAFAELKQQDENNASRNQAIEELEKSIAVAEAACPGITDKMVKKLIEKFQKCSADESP

[16] = biological target: EPHA1 (Homo sapiens, UniProt P21709); assay: NanoBRET CELLinib128; conditions: read-out: Tracer bound
Chain of EPHA1 (P21709 26-976): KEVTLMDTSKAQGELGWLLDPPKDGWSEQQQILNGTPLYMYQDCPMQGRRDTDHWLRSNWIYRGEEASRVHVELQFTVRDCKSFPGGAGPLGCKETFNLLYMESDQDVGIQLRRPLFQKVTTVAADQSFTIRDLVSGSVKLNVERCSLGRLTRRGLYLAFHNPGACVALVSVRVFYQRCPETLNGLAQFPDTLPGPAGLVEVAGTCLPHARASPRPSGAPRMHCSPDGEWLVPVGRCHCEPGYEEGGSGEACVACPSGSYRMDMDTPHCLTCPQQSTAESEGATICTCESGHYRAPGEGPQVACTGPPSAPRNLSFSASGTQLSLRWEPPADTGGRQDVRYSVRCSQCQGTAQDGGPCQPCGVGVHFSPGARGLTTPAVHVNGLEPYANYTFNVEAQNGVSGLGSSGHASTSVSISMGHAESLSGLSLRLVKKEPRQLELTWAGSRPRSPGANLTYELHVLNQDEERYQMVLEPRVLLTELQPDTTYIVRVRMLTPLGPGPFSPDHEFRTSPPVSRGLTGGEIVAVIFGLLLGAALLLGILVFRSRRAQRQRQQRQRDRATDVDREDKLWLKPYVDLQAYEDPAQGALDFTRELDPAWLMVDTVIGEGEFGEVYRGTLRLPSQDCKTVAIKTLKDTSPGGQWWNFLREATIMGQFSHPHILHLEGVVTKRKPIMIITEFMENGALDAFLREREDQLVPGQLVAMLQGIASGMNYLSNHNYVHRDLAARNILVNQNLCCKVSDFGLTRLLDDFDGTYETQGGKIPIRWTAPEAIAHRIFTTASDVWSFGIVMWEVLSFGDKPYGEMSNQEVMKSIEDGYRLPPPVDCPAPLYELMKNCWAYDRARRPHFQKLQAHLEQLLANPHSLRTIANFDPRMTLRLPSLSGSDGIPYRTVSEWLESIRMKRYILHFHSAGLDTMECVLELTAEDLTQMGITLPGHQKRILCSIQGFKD

[17] = biological target: RIPK1 (Homo sapiens, UniProt Q13546); assay: NanoBRET CELLinib128; conditions: read-out: Tracer bound
[18] = biological target: T5, FRK (Homo sapiens, UniProt P42685); assay: NanoBRET CELLinib128; format: binding; conditions: 100% no effect, 0% complete tracer displacement, read-out: Tracer bound
T5 construct: Full-length kinase ORF (Promega, Madison, WI, USA) cloned in frame with a NanoLuc-vector was transfected into HEK293T cells; host or cells: HEK293T
T5 sequence (P42685 whole entry): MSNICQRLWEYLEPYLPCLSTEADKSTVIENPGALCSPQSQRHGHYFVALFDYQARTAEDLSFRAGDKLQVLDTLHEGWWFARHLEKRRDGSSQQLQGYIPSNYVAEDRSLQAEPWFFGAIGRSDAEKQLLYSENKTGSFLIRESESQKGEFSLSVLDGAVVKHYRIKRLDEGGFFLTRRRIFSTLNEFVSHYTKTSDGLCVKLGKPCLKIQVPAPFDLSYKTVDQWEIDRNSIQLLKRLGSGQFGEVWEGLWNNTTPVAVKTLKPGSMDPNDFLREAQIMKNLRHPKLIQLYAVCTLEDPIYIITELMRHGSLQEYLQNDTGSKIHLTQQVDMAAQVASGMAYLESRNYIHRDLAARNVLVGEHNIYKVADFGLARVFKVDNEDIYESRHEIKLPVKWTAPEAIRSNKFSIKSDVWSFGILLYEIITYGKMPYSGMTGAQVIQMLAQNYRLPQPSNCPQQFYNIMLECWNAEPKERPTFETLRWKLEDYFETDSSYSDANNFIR

[19] = biological target: EPHB6 (Homo sapiens, UniProt O15197); assay: NanoBRET CELLinib128; conditions: read-out: Tracer bound
Chain of EPHB6 (O15197 32-1021): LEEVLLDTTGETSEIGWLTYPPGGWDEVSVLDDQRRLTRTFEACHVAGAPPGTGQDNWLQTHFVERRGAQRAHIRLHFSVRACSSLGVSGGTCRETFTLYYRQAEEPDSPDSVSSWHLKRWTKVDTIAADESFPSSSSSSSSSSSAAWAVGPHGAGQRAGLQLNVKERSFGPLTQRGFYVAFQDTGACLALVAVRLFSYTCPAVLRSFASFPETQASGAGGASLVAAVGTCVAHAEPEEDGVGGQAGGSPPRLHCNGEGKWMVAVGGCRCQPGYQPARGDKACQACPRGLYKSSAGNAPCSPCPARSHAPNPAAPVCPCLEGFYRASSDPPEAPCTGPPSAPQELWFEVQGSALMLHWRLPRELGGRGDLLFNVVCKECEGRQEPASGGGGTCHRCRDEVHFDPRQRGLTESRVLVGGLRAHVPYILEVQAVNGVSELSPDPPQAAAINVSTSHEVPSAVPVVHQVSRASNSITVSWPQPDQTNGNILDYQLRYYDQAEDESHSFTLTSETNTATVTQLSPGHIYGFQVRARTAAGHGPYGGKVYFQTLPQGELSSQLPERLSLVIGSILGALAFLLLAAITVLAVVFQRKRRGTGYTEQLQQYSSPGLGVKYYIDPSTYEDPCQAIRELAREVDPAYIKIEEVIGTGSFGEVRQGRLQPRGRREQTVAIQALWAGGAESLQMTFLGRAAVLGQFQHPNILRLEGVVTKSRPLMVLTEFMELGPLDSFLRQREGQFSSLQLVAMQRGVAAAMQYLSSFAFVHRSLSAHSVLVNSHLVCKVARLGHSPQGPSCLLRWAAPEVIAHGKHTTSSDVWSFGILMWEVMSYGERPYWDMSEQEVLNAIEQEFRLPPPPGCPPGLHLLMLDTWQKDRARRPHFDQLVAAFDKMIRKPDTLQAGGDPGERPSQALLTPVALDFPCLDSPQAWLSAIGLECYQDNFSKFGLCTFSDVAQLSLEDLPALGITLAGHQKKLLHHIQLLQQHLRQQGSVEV

[20] = biological target: SRC (Homo sapiens, UniProt P12931); assay: NanoBRET CELLinib128; conditions: read-out: Tracer bound
[21] = system: 128 representative protein kinases; assay: NanoBRET CELLinib128 kinase selectivity panel, summary; conditions: 1 μM
[22] = biological target: T6, PTK6 (Homo sapiens, UniProt Q13882); assay: NanoBRET CELLinib128; format: binding; conditions: 100% no effect, 0% complete tracer displacement, read-out: Tracer bound
T6 construct: Full-length kinase ORF (Promega, Madison, WI, USA) cloned in frame with a NanoLuc-vector was transfected into HEK293T cells; host or cells: HEK293T

[23] = biological target: MARK3 (Homo sapiens, UniProt P27448); assay: NanoBRET CELLinib128; conditions: read-out: Tracer bound
[24] = biological target: FGR (Homo sapiens, UniProt P09769); assay: NanoBRET CELLinib128; conditions: read-out: Tracer bound
[25] = system: MV4-11 cells; assay: Apoptosis by flow cytometry (annexin-V/propidium iodine); format: cell-based, human; conditions: 24 h
Protocol: To further assess the biological relevance of these findings, we treated MV4-11 cells with the new PROTACs, included MA49 as control, and analyzed them for early (annexin-V positive) and late apoptosis (annexin-V and propidium iodine positive) by flow cytometry. Cells in late apoptosis are more severely damaged than cells in early apoptosis. […] After 72 h, all degraders evoked equal levels of apoptosis (Figure 4c). We additionally tested these degraders in MOLM-13 cells which carry FLT3-ITD and FLT3 from a patient with AML after initial myelodysplastic syndrome. These were hardly affected by the degraders after 24 h (Figure 4d).
Figure 4 Biological and biochemical characterization of the FLT3 PROTACs. (a) MV4-11 cells were incubated for 24 h with 50 nM of the indicated compounds. Immunoblotting was performed for the indicated proteins and their phosphorylation (p-) or cleavage (cl.; indicated by arrows); β-actin was used to ensure equal sample loading. (b) MV4-11 cells were treated with the indicated agents and analyzed for early and late apoptosis by flow cytometry. (c) Same as in (b) but treatment for 72 h. (d) MOLM-13 cells were treated with the indicated agents and analyzed for early and late apoptosis by flow cytometry. […] Immunoblots show the expression of the indicated proteins and their phosphorylation (p-); β-actin was used to ensure equal sample loading. […]

| Tracer bound [1] [%] | remaining activity at 1 µM [2] [%] | remaining activity at 1 µM [3] [%] | remaining activity at 1 µM [4] [%] | remaining activity at 1 µM [5] [%] | remaining activity at 1 µM [6] [%] | remaining activity at 1 µM [7] [%] | remaining activity at 1 µM [8] [%] | Tracer bound [9] [%] | remaining activity at 1 µM [10] [%] | remaining activity at 1 µM [11] [%] | remaining activity at 1 µM [12] [%] | remaining activity at 1 µM [13] [%] | remaining activity at 1 µM [14] [%] | remaining activity at 1 µM [15] [%] | remaining activity at 1 µM [16] [%] | remaining activity at 1 µM [17] [%] | remaining activity at 1 µM [18] [%] | remaining activity at 1 µM [19] [%] | remaining activity at 1 µM [20] [%] | Structure (SMILES) | other results |
| --- | --- | --- | --- | --- | --- | --- | --- | --- | --- | --- | --- | --- | --- | --- | --- | --- | --- | --- | --- | --- | --- |
| 49.5 | 120 | 93.8 | 111 | 3.8 | 114 | 109 | 104 | 98.1 | 4 | 120 | 104 | 10.6 | 102 | 88.5 | 37.2 | 93.3 | 68.2 | 99.5 | 120 | CNC(=O)c1cc(Oc2ccc(NC(=O)Nc3cc(C(C)(C)C)on3)cc2)ccn1 [MA68, reference compound] | Target Count < 50 % tracer bound (kinases with >50% tracer displacement) ([21]; of 128 kinases): 25; remaining activity at 1 µM [22]: 67.6%; remaining activity at 1 µM [23]: 105%; remaining activity at 1 µM [24]: 119% |
|  |  |  |  |  |  |  |  |  |  |  |  |  |  |  |  |  |  |  |  | Cc1ncsc1-c1ccc([C@H](C)NC(=O)[C@@H]2C[C@@H](O)CN2C(=O)[C@@H](NC(=O)[C@H]2CC[C@H](C(=O)N3CCC(CCNC(=O)c4cc(Oc5ccc(NC(=O)Nc6cc(C(C)(C)C)on6)cc5)ccn4)CC3)CC2)C(C)(C)C)cc1 [MA190, 4-(4-(3-(5-(tert-Butyl)isoxazol-3-yl)ureido)phenoxy)-N-(2-(1-(trans-4-(((S)-1-((2S,4R)-4-hydroxy-2-(((S)-1-(4-(4-methylthiazol-5-yl)phenyl)ethyl)carbamoyl)pyrrolidin-1-yl)-3,3-dimethyl-1-oxobutan-2-yl)carbamoyl)cyclohexanecarbonyl)piperidin-4-yl)ethyl)picolinamide] | induction of late apoptosis [25]: most effective in inducing late apoptosis |
| 120.0 | 120 | 100 | 107 | 120 | 120 | 105 | 120 | 107.6 | 85.7 | 120 | 92.5 | 104 | 85.4 | 82.3 | 120 | 104 | 117 | 120 | 120 | Cc1ncsc1-c1ccc([C@H](C)NC(=O)[C@@H]2C[C@@H](O)CN2C(=O)[C@@H](NC(=O)[C@H]2CC[C@H](C(=O)N3CCN(CCNC(=O)c4cc(Oc5ccc(NC(=O)Nc6cc(C(C)(C)C)on6)cc5)ccn4)CC3)CC2)C(C)(C)C)cc1 [MA191, 4-(4-(3-(5-(tert-Butyl)isoxazol-3-yl)ureido)phenoxy)-N-(2-(4-(trans-4-(((S)-1-((2S,4R)-4-hydroxy-2-(((S)-1-(4-(4-methylthiazol-5-yl)phenyl)ethyl)carbamoyl)pyrrolidin-1-yl)-3,3-dimethyl-1-oxobutan-2-yl)carbamoyl)cyclohexanecarbonyl)piperazin-1-yl)ethyl)picolinamide] | induction of late apoptosis [25]: most effective in inducing late apoptosis; kinases with no detectable binding (<10%) ([21]; share of the 128 kinases): 93.7%; remaining activity at 1 µM [22]: 118%; remaining activity at 1 µM [23]: 102%; remaining activity at 1 µM [24]: 120% |
